Measured values as given in patent publication US20090202439A1, “Methods for treatment of angiogenesis” (The Johns Hopkins University, priority 2004, published 2009).
Where two headings read alike, the source gives them in different places.

Tests used:
[1] = system: PECAM-1; assay: PECAM-1 protein expression by Western immunoblot in HUVECs; type: cell-based, human; conditions: for VEGF/LacCer induced PECAM-1: HUVECs pre-treated with NAC, DPI or PDTC; for bypass of inhibitory effect of D-PDMP on VEGF induced PECAM-1 protein expression: HUVECs treated with D-PDMP, then lipid; for PECAM-1 expression induced by lipid: 2.5 μM for 4 hrs; for reversal of inhibitory effect of PPMP on VEGF induced PECAM-1 expression: PPMP 90 min, then lipid 2.5 μM 4 hrs, GlcCer to a lesser extent than LacCer
Method: Cell Culture—Human umbilical vein endothelial cells (HUVEC) and endothelial cells growth medium EGM™ were purchased from Cambrex, (Walkersville, Md.) and were cultured in EGM™ medium supplemented with 10% fetal bovine serum (FBS).
Western Immunoblot Analysis—[…] of protein was resolved by 10% SDS-PAGE and then transferred to nitrocellulose membrane. The membrane-bound primary antibodies were visualized by horseradish peroxidase-conjugated secondary antibody using chemiluminescence kit. The films were then densitometrically scanned using Molecular Dynamics Image Scanner and analyzed using Image Quant software.

[2] = system: NF-κB; assay: Cytosolic NF-κB expression in HUVECs; type: cell-based, human; conditions: HUVECs pre-treated with NAC, DPI or PDTC
[3] = system: HUVECs; assay: In vitro angiogenesis/tube formation assay in HUVECs; type: cell-based, human; conditions: for bypass of inhibitory effect of D-PDMP on VEGF induced angiogenesis: HUVECs treated with D-PDMP, then lipid; for reversal of inhibitory effect of PPMP on VEGF induced angiogenesis: then lipid 2.5 μM 4 hrs, GlcCer to a lesser extent than LacCer
Method: (§1) In vitro angiogenesis/tube formation assay—In vitro angiogenesis assay was performed using a commercially available kit from Chemicon Inc (Temecula, Calif.).

[4] = system: LacCer synthase; conditions: previously shown; cited from earlier work
[5] = system: PECAM-1; assay: PECAM-1 mRNA expression by real-time RT-PCR in HUVECs; type: cell-based, human
[6] = system: GlcCer; conditions: HUVECs
[7] = system: HUVEC; assay: Apoptosis in HUVEC; type: cell-based, human; conditions: D-PDMP 20 μM up to 4-6 hrs, HUVEC (data not shown)
[8] = system: GbOse3Cer; assay: GbOse3Cer synthesis in HUVECs; type: cell-based, human; conditions: cells treated with VEGF, with and without D-PDMP (data not shown)
[9] = system: LacCer
[10] = system: GalT-V; assay: GalT-V protein expression by immunoblot in siRNA transfected HUVECs; type: cell-based, human; conditions: siRNA duplex 100 nM, 48 hrs after transfection
Method: Next, 48 hrs after transfection cells were harvested lysed, and GalT-V protein levels were analyzed by immunoblot probed with GalT-V antibody or b-actin, as shown in the figure. GalT-V expression was expressed as % control, when normalized with b-actin expression and the relative quantification values are shown below the immunoblot. (C) HUVECs were transfected with either scrambled GalT-V siRNA (100 nM) or GalT-V siRNA (100 nM). […] The data shown is representative of two identical experiments yielding similar result. […] HUVECs were transfected with siRNA duplexes using Oligofectamine (Invitrogen), following protocol supplied by the manufacturer. Western Immunoblot Analysis-25 g of protein was resolved by 10% SDS-PAGE and then transferred to nitrocellulose membrane. The membrane-bound primary antibodies were visualized by horseradish peroxidase-conjugated secondary antibody using chemiluminescence kit. The films were then densitometrically scanned using Molecular Dynamics Image Scanner and analyzed using Image Quant software.

[11] = system: GalT-V; assay: LacCer synthase (GalT-V) enzyme activity in siRNA transfected HUVECs; type: cell-based, human; conditions: siRNA 100 nM, compared with scrambled siRNA treated cells
Method: (C) HUVECs were transfected with either scrambled GalT-V siRNA (100 nM) or GalT-V siRNA (100 nM). 48 hrs post transfection, cells were lysed and Cer synthase enzyme activity was performed as described in “Materials and Methods”. […] HUVECs were transfected with siRNA duplexes using Oligofectamine (Invitrogen), following protocol supplied by the manufacturer.

[12] = system: REN (WT) cells; assay: In vitro angiogenesis assay in REN (WT) cells lacking PECAM-1; type: cell-based, human; conditions: VEGF 25 ng/ml or LacCer 2.5 μM 4 hrs, compared with 2% FBS treated cells
Method: (§2) REN (WT) [A] were either stimulated with VEGF (25 ng/ml) [B]; LacCer (2.5 μM) [C] or REN (rhPECAM-1) [D] with VEGF (25 ng/ml) (E) or LacCer [F] for 4 hrs and then in vitro angiogenesis assays were performed as described earlier. Results shown here are from set of experiments performed in triplicate yielding similar results.
(§3) Cell Culture—Human umbilical vein endothelial cells (HUVEC) and endothelial cells growth medium EGM™ were purchased from Cambrex, (Walkersville, Md.) and were cultured in EGM™ medium supplemented with 10% fetal bovine serum (FBS). Human mesoendothelioma cell line [(REN— wild type (WT)] which lacks endogenous PECAM-1 expression and REN (mt-rhPECAM-1) expressing human PECAM-1 was kindly provided by Dr. Steven Albelda, University of Pennsylvania Medical Center, USA. REN-WT was grown in RPMI 1640 supplemented with 101/&FBS. REN (mtrhPECAM-1) was cultured in the same medium with G418 (0.5 g/L Gibco).
as §1

[13] = system: REN (mt-rhPECAM-1); assay: In vitro angiogenesis assay in REN cells transfected with human PECAM-1 gene; type: cell-based; conditions: REN transfected with human PECAM-1 gene, VEGF 25 ng/ml or LacCer 4 hrs, compared with control
Method: as §2, §3, §1

[14] = cells treated with increasing concentrations of L-PDMP
[15] = D-PDMP 20 μM for 90 min, then VEGF 25 ng/ml
[16] = CC 5.0 μM, GÖ 6850 and 6976 50 nM, BPB 10 μM, MAFP 3.0 μM, compared with vehicle (DMSO)
[17] = HUVECs pretreated with PPMP 20 μM
[18] = VEGF 25 ng/ml 4 hrs, compared to scrambled siRNA transfected cells
[19] = HUVECs, VEGF 30 ng/ml for 4 hrs

c1ccc2c(c1)[I+]c1ccccc1-2 [DPI, diphenylene iodonium]
VEGF/LacCer induced PECAM-1 [1]: significantly blunted
VEGF/LacCer induced cytosolic NF-κB expression [2]: significantly blunted

CCCCCCCCCC(=O)N[C@@H](CN1CCOCC1)[C@@H](O)c1ccccc1 [L-PDMP]
angiogenesis [3, 14]: significantly induced
PECAM-1 expression [1, 14]: significantly induced
action on LacCer synthase [4]: potent activator

CC(=O)N[C@@H](CS)C(=O)O [NAC, N-Acetyl-L-cysteine]
VEGF/LacCer induced PECAM-1 [1]: significantly blunted

CC(C)c1cc(/C=C(\C#N)C(=O)NCCCc2ccccc2)cc(C(C)C)c1O [SU 1498]
LacCer induced tube formation/angiogenesis ([3]; HUVECs pre-treated with SU 1498 1 hr, then LacCer): not LacCer
VEGF induced tube formation/angiogenesis ([3]; HUVECs pre-treated with SU 1498 1 hr, then VEGF): failed to induce tube formation/angiogenesis

CCCCCCCCCC(=O)N[C@H](CN1CCOCC1)[C@H](O)c1ccccc1 [D-PDMP, (1R,2R)-1-phenyl-2-decanoylamino-3-morpholino-1-propanol]
VEGF induced PECAM-1 mRNA expression [5, 15]: abrogated
VEGF induced GlcCer synthesis ([6]; D-PDMP 20 μM pretreatment, as early as 10 min): inhibited
apoptosis [7]: did not induce apoptosis
VEGF induced angiogenesis ([3]; HUVECs, D-PDMP): significantly mitigated
VEGF induced PECAM-1 protein expression [1, 15]: abrogated
VEGF-induced PECAM-1 expression ([1]; HUVECs pre-incubated with D-PDMP 10-30 μM, then VEGF 25 ng/ml 4 hrs): concentration-dependent inhibition
action on LacCer synthase [4]: inhibitor of purified LacCer synthase
level of GbOse3Cer synthesis [8]: similar
VEGF induced LacCer biosynthesis ([9]; HUVECs pretreated with 20 μM D-PDMP, then VEGF 25 ng/ml): mitigated

digalactosylceramide [DGDG]
bypass of inhibitory effect of D-PDMP on VEGF induced angiogenesis [3]: failed to bypass
bypass of inhibitory effect of D-PDMP on VEGF induced PECAM-1 protein expression [1]: failed to bypass
PECAM-1 expression induced by lipid ([1]; HUVECs): did not induce

CCCCCCCCCCCCC/C=C/[C@@H](O)[C@H](CO)NC(C)=O [C2ceramide]
bypass of inhibitory effect of D-PDMP on VEGF induced angiogenesis [3]: failed to bypass
bypass of inhibitory effect of D-PDMP on VEGF induced PECAM-1 protein expression [1]: failed to bypass
PECAM-1 expression induced by lipid ([1]; HUVECs): did not induce

CN(C)CCCn1cc(C2=C(c3c[nH]c4ccccc34)C(=O)NC2=O)c2ccccc21 [GÖ 6850]
VEGF/LacCer induced tube formation [3, 16]: abrogated
VEGF/LacCer induced PECAM-1 expression [1, 16]: abrogated

glucosylceramide [GlcCer]
bypass of inhibitory effect of D-PDMP on VEGF induced angiogenesis [3]: failed to bypass
reversal of inhibitory effect of PPMP on VEGF induced angiogenesis ([3]; HUVECs): also reversed
bypass of inhibitory effect of D-PDMP on VEGF induced PECAM-1 protein expression [1]: failed to bypass
PECAM-1 expression induced by lipid ([1]; HUVECs): did not induce
reversal of inhibitory effect of PPMP on VEGF induced PECAM-1 expression ([1]; HUVECs): also reversed

Cn1c2ccccc2c2c3c(c4c5ccccc5n(CCC#N)c4c21)CNC3=O [GÖ 6976]
VEGF/LacCer induced tube formation [3, 16]: abrogated
VEGF/LacCer induced PECAM-1 expression [1, 16]: abrogated

CCCCCCCCCCCCCCCC(=O)NC(CN1CCOCC1)C(O)c1ccccc1 (centres unmarked) [PPMP]
VEGF induced angiogenesis [3, 17]: mitigation
VEGF induced PECAM-1 expression [1, 17]: mitigation

S=C(S)N1CCCC1 [PDTC, 1-pyrrolidinecarbodithioicacid]
VEGF/LacCer induced PECAM-1 [1]: significantly blunted
VEGF/LacCer induced cytosolic NF-κB expression [2]: significantly blunted

GalT-V specific siRNA duplex: siRNA for human GalT-V: 5′-CGG AGU GAG UGG CUU AAC A dTdT-3′ (sense), 5′-UGU UAA GCC ACU CAC UCC G dTdT-3′ (antisense) (sense CGGAGUGAGUGGCUUAACATT; antisense UGUUAAGCCACUCACUCCGTT; chemistry not fully specified)
decrease of GalT-V protein expression [10]: ~70%
angiogenesis in GalT-V silenced cells treated with VEGF [3, 18]: blunted
PECAM-1 expression in GalT-V silenced cells treated with VEGF [1, 18]: No change
decrease of GalT-V enzyme activity [11]: ~62%

Lactosylceramide [LacCer]
bypass of D-PDMP inhibition of PECAM-1 mRNA expression ([5]; D-PDMP 20 μM 90 min, then VEGF 25 ng/ml and LacCer 2.5 μM 4 hrs): bypassed
reversal of inhibitory effect of PPMP on VEGF induced angiogenesis ([3]; HUVECs): reversed
induction of angiogenesis ([3]; HUVECs, independent of presence/absence of D-PDMP and VEGF): significantly induced
tube formation [12]: failed to form tube-like structures
bypass of inhibitory effect of D-PDMP on VEGF induced PECAM-1 protein expression [1]: bypassed
PECAM-1 expression induced by lipid ([1]; HUVECs): significantly induced
reversal of inhibitory effect of PPMP on VEGF induced PECAM-1 expression ([1]; HUVECs): reversed
tube formation [13]: induced tube formation

Vascular endothelial growth factor [VEGF]
time of maximal PECAM-1 mRNA expression ([5]; HUVECs, VEGF 25 ng/ml, different time points): 4 to 5 h
PECAM-1 mRNA expression [5, 19]: Maximal
PECAM-1 mRNA expression ([5]; HUVECs, VEGF 5-30 ng/ml): dose-dependent increase
biosynthesis of GlcCer ([6]; VEGF 25 ng/ml): stimulated
tube formation [12]: failed to form tube-like structures
time of maximal PECAM-1 protein expression ([1]; HUVECs, VEGF 25 ng/ml, various time intervals): 4 h
PECAM-1 protein expression [1, 19]: maximal
tube formation [13]: induced tube formation
de novo biosynthesis of LacCer ([9]; HUVECs, VEGF 25 ng/ml, time-dependent, from 10 min): significantly stimulated

bromophenacyl bromide [BPB]
VEGF/LacCer induced tube formation [3]: abrogated
VEGF/LacCer induced PECAM-1 expression [1]: abrogated
